Reference: patent US5411942A, “Peptide derivative, pharmaceutical preparation containing it and method for treatment of glaucoma” (Carlbiotech Ltd. A/S, priority 1989, dated 1995)
Peptide text beside a SMILES is read from it. * marks the point of attachment. Acm = CC(=O)NC*

Columns and labels:
mice = assay: Intravenous tolerance in mice; format: in vivo; conditions: doses as high as 40 mg/kg intravenously
rats [1] = assay: Intravenous tolerance in rats; format: in vivo; conditions: doses as high as 40 mg/kg intravenously
rats [2] = assay: Subcutaneous toxicity in rats, also prolonged for a month; format: in vivo; conditions: subcutaneous administration of similar doses in rats, also prolonged treatment for a month
blood pressure = conditions: e.g. at 10 mg/kg in rats
Salmonella strains = conditions: Ames test on Salmonella strains
rabbit's eye = conditions: 5% solution as eye drops in rabbit's eye, even after treatment over a month
anterior sclera = conditions: Ussing chamber, glutathione bicarbonate Ringer's solution
[3] = system: antibodies in serum samples; conditions: serum of rats treated subcutaneously for one month in large doses
[4] = system: water load induced hypertension in the rabbit eye; assay: Water load model, intraocular pressure in rabbits' eyes; format: in vivo; conditions: single dose; for AUC: area under Δ IOP-time curve
Procedure: The findings of intraocular pressure lowering effects in the stress induced rabbit model has been confirmed and further studied by using another elevated eye pressure rabbit model. In this model, the widely applied water load model, elevation of the intraocular pressure is achieved by injecting a large volume of sterile water intraperitoneally into the rabbits. Following onset of eye drop treatment in one eye while the other eye is treated with saline placebo, the intraocular pressure of both eyes is then measured at various intervals and the pressure difference between the eyes is taken as an expression of the pharmaceutical effect. In these experiments, pilocarpine, a well-known pressure lowering cholinergic agent, was used as positive control.
The studies utilized a "water load" animal model.
Thirty minutes before drug solution installation, rabbits were injected intraperitonally with 60 ml/kg of sterile distilled water for injection (30° C.) spiked with an antibiotic mixture (Sigma P9032).
At time zero, 50 μl of a drug solution was instilled to one eye and an equal volume of a saline solution was instilled to the other eye. The intraocular pressure in each eye was monitored at the time points indicated. The change in intraocular pressure (IOP) at each time point is computed by subtracting the IOP in the dosed eye from that in the undosed eye.
From these plots was assessed the maximal IOP effect, the time to reach this and the time for returning to a zero or insignificant level of intraocular pressure lowering effect. These figures may be taken as a measure of potency and duration of effect. As a measure of the full pharmaceutical effect at various dose levels was taken a sum figure of the area under the curves (AUC).
A 0.5% solution of the peptides or 2.6% pilocarpine nitrate (positive control) in 0.9% NaCl aqueous solution was applied in one eye and 0.9% Nacl, also acting as negative control in the other eye, an IOP was measured in both eyes for 3 hours.
A 0.25%, 0.5% of 1.0% solution of the peptides in 0.9% aqueous NaCl solution was applied in one eye and 0.9% NaCl to the other eye and IOP was measured in both eyes for 3 hours.

[5] = system: stress induced ocular hypertensive rabbits; assay: Stress induced ocular hypertension in the rabbit eye, treatment started after pressure elevation; format: in vivo; conditions: for IOP lowering efficiency in relation to Timolol / Pressure after 5 days of stress (Treatment starts) / Pressure after 10 days of stress (5 days of treatment) / Initial Pressure (Unstressed) / Change in IOP: Example 6; for Pressure after 5 days of stress (Treatment starts) / Pressure after 5 days: before treatment; for Pressure after 10 days of stress (5 days of treatment): stress continued; for Initial Pressure (Unstressed): baseline before stress; for Change in IOP: day 10 versus day 5; for Pressure after 5 days / Initial Pressure / Pressure after 10 days (5 days of treatment): Example 8; for Pressure after 5 days: after 5 day stress induction; for Initial Pressure: baseline; for Pressure after 10 days (5 days of treatment): 2 drops four times for 5 days
Procedure: (§1) The main feature of this clinical model is a stress induced elevation of the intraocular pressure in the rabbit eye above the initial and normal value. The stress is exerted, i.e. applied, in the form of measuring the pressure (at 12 hour intervals) with the help of a SHIOTZ-Tonometer, which is loaded with 7.5 grams.
(§2) Adult rabbits of random breed and sex in groups of n=3-10 were employed. Weight 2,5-3,0 kg. The peptide was a freeze-dried powder, and was applied to the rabbit eye as a powder, or as drops, dissolved in 0.9% NaCl aqueous solution. Positive control was the commercial glaucoma drugs, either timololor pilocarpin, and negative control was 0.9% NaCl solution in water.
on stress induced ocular hypertensive rabbits. […] The amount of peptide per treatment was thus 3.75 mg which corresponds on a molar basis to the amount of Timolol used per treatment.
The local treatment was started on day 5 of glaucoma induction (i.e. afer 10 stress units), and the stress, that is the trauma, was continued during the treatment with the peptide.
A 1% and 0.1% solution of the peptide in 0.9% NaCl aqueous solution was applied four times (2 drops each time) for 5 days after an initial 5 day stress induction period. (Stress units at 12 hour intervals).

[6] = system: experimentally hypertensive rabbit eye; assay: Antagonizing effect on stress induced intraocular pressure in the rabbit eye, treatment simultaneous with stress; format: in vivo; conditions: for Change in pressure / Pressure after 5 1/5 / Initial Pressure: Example 9; for Change in pressure / Pressure after 5 1/5: 11 stress units, peptides as drops of 0.5% solution 3× daily; for Initial Pressure: baseline
Procedure: as §1, §2
20 mg peptide was dissolved in 0.6 ml 0.9% NaCl aqueous solution and applied in aliquots of 60 μl four times daily over a period of 2.5 days.
The treatment was started at the beginning of the experiment simultaneously with stress units. Five stress units were applied at 12 hour intervals.
Stress units were applied at 12 hour intervals over a period of 51/2 days, i.e. 11 stress units. The peptides were applied 3× daily over this period as drops of a 0.5% solution in 0.9% NaCl in aqueous solutions.
Stress units were applied at 12 hour intervals over a period of 51/2 days, i.e. 11 stress units. The peptides were applied 3× daily over this period as drops of a 1.0% solution in 0.9% NaCl in aqueous solution.

[7] = system: cultured bovine trabecular meshwork cells; assay: Cultured bovine trabecular meshwork cells incubated with peptide; format: cell-based
From the text: The mechanism, or mechanisms, by way of which the peptides according to the invention work, is so far not known in detail and may be of hitherto unknown types or related to some known mechanisms. With the apparent lack of β-blocking effects, other known mechanisms could be effects on the enzyme carbo-anhydrase or effects on aqueous humour outflow. Some indications of mechanisms of the latter type have been found in in vitro studies. […] The significant decrease in glycosamine uptake with normal synthesis of glycoproteins like fibronectin is taken to indicate an influence on the formation of glycosamino glycans, an important parameter in the regulation of outflow of aqueous humour from the eye.

[8] = system: freshly excised bulbar conjunctiva; conditions: Ussing chamber, glutathione bicarbonate Ringer's solution
[9] = Example 11, 2.6% pilocarpine nitrate
[10] = 0.5% peptide, 3.75 mg powder 4× daily
[11] = cell cultures incubated with the peptide

CC(=O)NCSC[C@H](NC(=O)[C@@H](NC(=O)CNC(=O)[C@H](CC(C)C)NC(=O)[C@@H](N)CC(N)=O)C(C)C)C(N)=O [AsnLeuGlyValCys(Acm)NH2, H-Asn-Leu-Gly-Val-Cys(Acm)-NH2] (H-NLGVC(Acm)-NH2)
tolerance of intravenous doses (mice): easily tolerated
tolerance of intravenous doses (rats [1]): easily tolerated
toxic or adverse effects (rats [2]): no toxic or adverse effects
effect on blood pressure (blood pressure): no effect on blood pressure
mutagenicity classification (Salmonella strains): non-mutagenic
anaesthetic effects (rabbit's eye): neither anaesthetic effects
irritant effects (rabbit's eye): nor irritant effects
penetration through tissue (anterior sclera): found to penetrate scleral tissue
detection of antibodies by ELISA [3]: not been possible to detect such antibodies

CC[C@@H]1C(=O)OC[C@@H]1Cc1cncn1C [pilocarpine nitrate, reference compound]
Duration of effect [4, 9]: 120 min
Max. response Δ IOP [4, 9]: -5.0 mm Hg
Time to max. response [4, 9]: 30 min

H-Asn-Gly-Gly-Val-Cys(Acm)-NH2 (H-NGGVC(Acm)-NH2; also: acetate salt) [AsnGlyGlyValCys(Acm)NH2]
IOP lowering efficiency in relation to Timolol ([5]; 0.5% peptide): 150%
Pressure after 5 days of stress (Treatment starts) ([5]; 0.5% peptide group): 32.0 mm Hg
Pressure after 10 days of stress (5 days of treatment) [5, 10]: 16.5 mm Hg
Initial Pressure (Unstressed) [5, 10]: 19.0 mm Hg
Change in IOP ([5]; 0.5% peptide): -15.5 mm Hg
Pressure after 5 days ([5]; 0.1% peptide group): 28 mm Hg
Initial Pressure ([5]; 0.1% peptide group): 18 mm Hg
Pressure after 10 days (5 days of treatment) ([5]; 0.1% solution): 15.5 mm Hg
Pressure after 5 days ([5]; 1% peptide group): 32 mm Hg
Initial Pressure ([5]; 1% peptide group): 21 mm Hg
Pressure after 10 days (5 days of treatment) ([5]; 1% solution): 18 mm Hg
Change in IOP After 21/2 days, Absolute ([6]; Example 7, 20 mg in 0.6 ml saline, 60 μl four times daily for 2.5 days, five stress units): -4.7 mm/Hg
Change in IOP After 21/2 days, Relative to Control ([6]; Example 7, relative to 0.9% saline): -9.2 mm/Hg
Change in pressure [6]: 0 mm Hg
Pressure after 5 1/5 [6]: 14 mm Hg
Initial Pressure [6]: 14 mm Hg
Duration of effect ([4]; Example 11, 0.5% solution): 120 min
Time to max. response ([4]; Example 11, 0.5% solution): 30 min
Max. response Δ IOP ([4]; Example 11, 0.5% solution, IOP followed 3 hours): -5.0 mm Hg
Duration of effect ([4]; Example 12, Conc. 0.25%): 80 min
Max resp. Δ IOP ([4]; Example 12, Conc. 0.25%): -2.0 mm Hg
Time to max. resp. ([4]; Example 12, Conc. 0.25%): 30 min
AUC ([4]; Example 12, Conc. 0.25%): 160 mm Hg×min
Duration of effect ([4]; Example 12, Conc. 0.5%): 120 min
Max resp. Δ IOP ([4]; Example 12, Conc. 0.5%): -5.0 mm Hg
Time to max. resp. ([4]; Example 12, Conc. 0.5%): 30 min
AUC ([4]; Example 12, Conc. 0.5%): 360 mm Hg×min
Duration of effect ([4]; Example 12, Conc. 1.0%): 120 min
Max resp. Δ IOP ([4]; Example 12, Conc. 1.0%): -4.0 mm Hg
Time to max. resp. ([4]; Example 12, Conc. 1.0%): 30 min
AUC ([4]; Example 12, Conc. 1.0%): 410 mm Hg×min
cell growth and ultrastructure [7, 11]: normal growth and ultrastructure
effect on collagen and fibronectin synthesis [7, 11]: no effect
uptake of glycosamines ([7]; cultured bovine trabecular meshwork cells): marked and significant decrease
penetration through tissue [8]: found to penetrate both tissues
penetration through tissue (anterior sclera): found to penetrate both tissues

CC(C)(C)NC[C@H](O)COc1nsnc1N1CCOCC1 [Timolol, reference compound]
IOP lowering efficiency in relation to Timolol ([5]; 0.25% Timolol): 100%
Initial Pressure (Unstressed) ([5]; 0.25% Timolol group): 19.0 mm Hg
Pressure after 5 days of stress (Treatment starts) ([5]; 0.25% Timolol group): 30.0 mm Hg
Pressure after 10 days of stress (5 days of treatment) ([5]; 0.25% Timolol): 19.5 mm Hg
Change in IOP ([5]; 0.25% Timolol): -10.5 mm Hg
Change in pressure [6]: +1 mm Hg
Pressure after 5 1/5 [6]: 16 mm Hg
Initial Pressure [6]: 15 mm Hg
